Experimental data taken from patent publication US12144795B2, “Cannabidiol compositions having modified cannabinoid profiles” (priority 2018, dated 2024).

Columns and labels:
[1] = Evaporative crystallization from solvent mixtures, form by HT-XRPD before and after AAC; assay type: physicochemical; conditions: Acetonitrile / Water (50/50, v/v)
Experimental: Recrystallization experiments were conducted to screen for potential CBD polymorphs and evaluate the ability of the recrystallized CBD to expel impurities. The following recrystallization methods were undertaken: • evaporative crystallization from solvent mixtures; • antisolvent crystallization; • cooling crystallization; • single solvent drop grinding; • crystallization by crash-cooling; • vapor-diffusion-into-solution crystallization; and • crystallization by liquid diffusion. In each method, the starting material consisted of crystallized CBD of form A. Evaporative Crystallization from Solvent Mixtures
Without wishing to be bound by theory, the general principle behind evaporative crystallization using solvent anti-solvent mixtures is that the solvent evaporates, first causing the API to precipitate to some extent, and this material then acts as a seed, when the anti-solvent is evaporated. The first evaporation step is slow and is followed by a faster final evaporation phase. All crystalline samples were Form A both before and after the solids were exposed to accelerated ageing conditions. An oil-like substance was obtained from an acetonitrile/water solvent mixture that could not be analyzed by XRPD; therefore, this sample was not exposed to accelerated aging conditions.

[2] = Anti-solvent crystallization, solid form by HT-XRPD of precipitates and evaporated mother liquors, before and after AAC; assay type: physicochemical
Experimental: For the anti-solvent crystallization experiments, clear solutions of CBD of approximately 60 mg/mL were prepared. Briefly, 1 volume of cannabidiol solution was added to 4 volumes of anti-solvent. If solids were precipitated, they were collected by centrifugation. The solid was analyzed by XRPD after being dried under ambient conditions and following drying under deep vacuum. The mother liquors were allowed to evaporate until completely dry and the remaining solids analyzed as well. All solids were analyzed by XRPD before and after exposure to accelerated aging conditions (40° C./75% RH) for two days.
Solids precipitated immediately from the combination of methanol with water. To facilitate precipitation, the samples were placed at 5° C. for 24 hours. […] When no XRPD record was generated, the field is defined as “Not Applicable” (N/A).

[3] = Stability studies of CBD prepared via Protocol 3 (crude, pure, 2x recrystallized; 5° C., 25° C./60% RH, 40° C./75% RH); assay type: physicochemical
[4] = Solubility of CBD in crude CBD mother liquor and heptane as a function of temperature (Crystal 16); conditions: CBD concentration of ca. 296 mg/ml (3.5 L/kg), crude CBD mother liquor
Text: To determine an appropriate seeding temperature of CBD, a Crystal 16 instrument was employed to measure the solubility in crude CBD mother liquor, a mixture of heptane and process impurities, and pure heptane.

[5] = Liquid diffusion crystallization, solid form by HT-XRPD; assay type: physicochemical
Experimental: A solution of cannabidiol of about 75 mg/mL was prepared and a layer of anti-solvent was carefully added to the vial. These experiments were performed with water as anti-solvent because of the larger difference in density between solvent and anti-solvent.

[6] = Stress stability tests of CBD (acidic, alkaline, oxidative, light, heat, humidity; UPLC, LC-MS, PDA-UV); assay type: physicochemical
Experimental: Cannabidiol samples obtained by Protocol 1 were subjected to acidic, alkaline, and oxidizing conditions in order to achieve a degradation of at least 3% or a change in appearance. The impact of light, heat, and humidity on the stability of the drug substance was investigated. The assay and purity of samples were analyzed by UPLC. The identity of unknown impurities was examined by LC-MS. The peak purity of cannabidiol after exposure to stress conditions was investigated by comparing the PDA-UV spectrum (photodiode array-ultraviolet) of cannabidiol with the spectrum of the unstressed sample and in addition by LC-MS analysis of the cannabidiol peak. The assay of the unstressed sample in FIG. 15A and FIG. 15B was used as a reference to calculate the extent of degradation of CBD under the representative stress conditions: Degradation of CBD=(1−[assay of stressed sample]/[assay unstressed sample])*100% […]
In a 20 ml GC headspace vial, 150 mg of CBD was suspended in 8 mL of 0.1 M sodium hydroxide and heated to T=80° C. for 2 h, 4 h and 6 h, respectively. […]

[7] = solvent 1,2-Dimethoxyethane, anti-solvent Decane
[8] = solvent 1,4-Dioxane, anti-solvent Water
[9] = solvent Acetone, anti-solvent 2,2,4-Trimethylepentane
[10] = solvent Acetonitrile, anti-solvent Decane
[11] = solvent Ethanol, anti-solvent Decane
[12] = solvent Ethyl acetate, anti-solvent 2,2,4-Trimethylepentane
[13] = solvent Isopropyl acetate, anti-solvent 2,2,4-Trimethylepentane
[14] = solvent Toluene, anti-solvent Decane
[15] = solvent Diethanolamine, anti-solvent Water
[16] = solvent Diethylene glycol, anti-solvent Water
[17] = solvent Dimethyl sulfoxide, anti-solvent Water

C=C(C)[C@@H]1CCC(C)=C[C@H]1c1c(O)cc(CCCCC)cc1O [CBD, (1′R,2′R)-5′-methyl-4-pentyl-2′-(prop-1-en-2-yl)-1′,2′,3′,4′-tetrahydro-[1,1′-biphenyl]-2,6-diol]
Form by HT-XRPD Before AAC [1]: Oily
Solid form by HT-XRPD Ambient After AAC ([2]; Dichloromethane / 2,2,4-Trimethylepentane, AS:S ratio 4:1): A low yield
AS:S ratio 4:1 Precipitation? [2, 7]: No
Form (evap. ML) [2, 7]: Oily
AS:S ratio 4:1 Precipitation? ([2]; solvent 1,2-Dimethoxyethane, anti-solvent Water): No
AS:S ratio 4:1 Precipitation? ([2]; solvent 1,4-Dioxane, anti-solvent 2,2,4-Trimethylepentane): No
AS:S ratio 4:1 Precipitation? [2, 8]: No
AS:S ratio 4:1 Precipitation? ([2]; solvent 2-Butanone, anti-solvent Water): No
AS:S ratio 4:1 Precipitation? [2, 9]: No
Form (evap. ML) [2, 9]: Oily
AS:S ratio 4:1 Precipitation? [2, 10]: No
Form (evap. ML) [2, 10]: Oily
AS:S ratio 4:1 Precipitation? ([2]; solvent Dichloromethane, anti-solvent 2,2,4-Trimethylepentane): No
AS:S ratio 4:1 Precipitation? [2, 11]: No
Form (evap. ML) [2, 11]: Oily
AS:S ratio 4:1 Precipitation? [2, 12]: No
Form (evap. ML) [2, 12]: A low
Form (evap. ML) after AAC [2, 12]: A low
AS:S ratio 4:1 Precipitation? [2, 13]: No
Form (evap. ML) [2, 13]: Oily
AS:S ratio 4:1 Precipitation? ([2]; solvent Methanol, anti-solvent Water): Yes
AS:S ratio 4:1 Precipitation? ([2]; solvent Tetrahydrofuran, anti-solvent Decane): No
AS:S ratio 4:1 Precipitation? ([2]; solvent Tetrahydrofuran, anti-solvent Water): No
AS:S ratio 4:1 Precipitation? [2, 14]: No
Form (evap. ML) [2, 14]: Oily
Hygroscopicity [3]: not hygroscopic
solubility temperature of CBD [4]: 29-30 °C
Effect of accelerated aging conditions ([5]; AAC for 2 days): no effect on the solid form
Solid form by HT-XRPD Ambient After AAC [5, 8]: oily
Solid form by HT-XRPD Ambient Before AAC [5, 8]: oily
Solid form by HT-XRPD Vacuum [5, 8]: Oily
Solids after? [5, 8]: No
Solid form by HT-XRPD Vacuum [5, 15]: Oily
Solids after? [5, 15]: Yes
Solid form by HT-XRPD Vacuum [5, 16]: Oily
Solids after? [5, 16]: Yes
Solid form by HT-XRPD Vacuum [5, 17]: Oily
Solids after? [5, 17]: Yes
XRPD of crystalline precipitates ([5]; water as anti-solvent, except 1,4-dioxane, diethylene glycol, DMSO and diethanolamine): indicative of Form A
Appearance after stress ([6]; 0.1 M hydrochloric acid, 80° C., 2 h, 4 h and 6 h): suspension of yellowish melted CBD in a clear colorless aqueous solution
Appearance after stress ([6]; 0.1 M sodium hydroxide, 80° C., 2 h, 4 h and 6 h): suspension of yellowish melted CBD in a violet aqueous solution
Appearance after stress ([6]; 24 h at 75% r.h.): did not change its appearance
Proposed main degradation products(s) ([6]; Acidic, 80° C.): D9-THC
Degradation of CBD ([6]; Acidic, 6 h, 80° C. (0.1 M hydrochloric acid)): 4%
Proposed main degradation products(s) ([6]; Alkaline stress): several isomers of CBQ
Degradation of CBD ([6]; Alkaline stress, stock solution at the time of the LC-MS analysis): > 80%
Proposed main degradation products(s) ([6]; Heat, 100° C. for 24 h): Hydroxy-CBD and Hydroxy-CBQ
Degradation of CBD ([6]; Heat, 24 h, 100° C.): 1%
Proposed main degradation products(s) ([6]; Humidity, 24 h, 24° C.): No prominent degradation product
Degradation of CBD ([6]; Humidity, 24 h, 24° C. (75% r.h.)): 0%
Degradation of CBD ([6]; Light, 24 h 24° C.): 1%
Proposed main degradation products(s) ([6]; Light, 24 h 24° C.): No prominent degradation product
Proposed main degradation products(s) ([6]; Oxidative stress (H2O2)): Hydroxy-CBD (CBD-OH)
Degradation of CBD ([6]; Oxidative, 6 h 80° C. (hydrogen peroxide 0.3% w/w)): 3%
Degradation of CBD ([6]; elevated temperatures lower than 100° C.): no significant degradation
Appearance after stress ([6]; heated to 50° C. and 60° C. for 1 hour): turned slightly yellow but did not change their physical condition
Appearance after stress ([6]; heated to 70° C. for one hour): partially melted
Appearance after stress ([6]; heated to 80° C. or higher): fully melted and exhibited a yellow color
Appearance after stress ([6]; hydrogen peroxide (0.3% w/w), 80° C., 2 h, 4 h and 6 h): suspension of yellowish melted CBD in a clear colorless aqueous solution
Appearance after stress ([6]; irradiated with light 24 h, 24° C.): turned slightly yellow
